From ChEMBL document CHEMBL5046218, “Novel Dual-Target μ-Opioid Receptor and Dopamine D3 Receptor Ligands as Potential Nonaddictive Pharmacotherapeutics for Pain Management” (J Med Chem, 2021)
Activity calls are given as the source filed them. The calls are words filed in the database; no cut-off is given here.

Molecular target: T1, D(2) dopamine receptor (Homo sapiens, UniProt P14416)
Assay: Displacement of [3H]-N-methylspiperone from human dopamine D2 receptor expressed in HEK293 cell membranes incubated for 60 mins by microbeta scintillation counting analysis
Set-up: species or system Membrane
Conditions: not given

T1 sequence (P14416 whole entry): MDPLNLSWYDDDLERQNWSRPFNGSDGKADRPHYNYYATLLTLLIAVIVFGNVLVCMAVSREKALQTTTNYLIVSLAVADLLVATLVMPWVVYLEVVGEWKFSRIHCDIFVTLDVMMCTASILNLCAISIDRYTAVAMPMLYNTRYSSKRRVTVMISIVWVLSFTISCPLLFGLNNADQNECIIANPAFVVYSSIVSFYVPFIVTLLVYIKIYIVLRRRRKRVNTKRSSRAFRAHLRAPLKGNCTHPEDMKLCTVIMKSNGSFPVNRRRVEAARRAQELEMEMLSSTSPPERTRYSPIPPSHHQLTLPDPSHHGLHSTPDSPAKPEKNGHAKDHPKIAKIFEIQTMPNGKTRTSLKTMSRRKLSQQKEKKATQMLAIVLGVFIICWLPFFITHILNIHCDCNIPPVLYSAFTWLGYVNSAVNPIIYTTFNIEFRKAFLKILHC

SMILES	Ki [µM]
O=C(NCCCCN1CC[C@]2(c3cccc(O)c3)CCC[C@H]1[C@H]2O)c1cc2ccccc2[nH]1	1.31
Oc1cccc([C@]23CCC[C@H](NCC2)[C@H]3O)c1	> 100
CCc1cc(Cl)c(OC)c(C(=O)NC[C@@H]2CCCN2CCC(C#N)(c2ccccc2)c2ccccc2)c1O	12.4
CN(C)C(=O)C(CCNCCCCN1CCc2ccc(C#N)cc2C1)(c1ccccc1)c1ccccc1	1.24
CCOC(=O)/C=C1\[C@@H]2CCC[C@@]1(c1cccc(O)c1)CCN2C[C@@H]1C[C@H]1CCNC(=O)c1cc2ccccc2[nH]1 (relative stereo)	4.86
CCOC(=O)/C=C1\[C@@H]2CCC[C@@]1(c1cccc(O)c1)CCN2CC1CC1CCNC(=O)c1cc2ccccc2[nH]1 (some centres not stated)	3.89
N#CC(CCN1CCN(c2cccc(Cl)c2Cl)CC1)(c1ccccc1)c1ccccc1	2.63
N#CC(CCNCCc1ccccc1)(c1ccccc1)c1ccccc1	17.6
CN(C)C(=O)C(CCNCCC(O)CN1CCN(c2cccc(Cl)c2Cl)CC1)(c1ccccc1)c1ccccc1 (configuration not stated)	0.7
CN(C)CCC(C(=O)N(C)C)(c1ccccc1)c1ccccc1	> 100
N#CC(CCNCCCCN1CCN(c2cccc(Cl)c2Cl)CC1)(c1ccccc1)c1ccccc1	0.149
CN1CCC(c2ccccc2)(c2ccccc2)C1	> 100
CCOC(=O)/C=C1\[C@@H]2CCC[C@@]1(c1cccc(O)c1)CCN2CCc1ccccc1	0.636
CCOC(=O)/C=C1\[C@@H]2CCC[C@@]1(c1cccc(O)c1)CCN2CCCCNC(=O)c1cc2ccccc2[nH]1	2.95
CCC(=O)C(CCN(C)C)(c1ccccc1)c1ccccc1 [NORMETHADONE]	34.9
Oc1cccc([C@@]23CCC[C@@H]([C@H]2O)N(C/C=C/c2ccccc2)CC3)c1	7.38
CCc1cccc(N2CCN(CCC(c3cccc(O)c3)c3cccc(OC)c3)CC2)c1Cl (configuration not stated)	0.19
CN(C)C(=O)C(CCN1CCc2ccc(C#N)cc2C1)(c1ccccc1)c1ccccc1	2.27
CCC(=O)C(CC(C)N(C)C)(c1ccccc1)c1ccccc1 (configuration not stated) [METHADONE]	> 100
CCc1cccc(N2CCN(CCCCNCCC(C(=O)N(C)C)(c3ccccc3)c3ccccc3)CC2)c1Cl	0.0621
CN(C)CCC(C(=O)NCCCCN1CCN(c2cccc(Cl)c2Cl)CC1)(c1ccccc1)c1ccccc1	0.0427
Oc1cccc([C@]23CCC[C@H](NCC2)[C@@H]3O)c1	> 100

Molecular target: T2, D(3) dopamine receptor (Homo sapiens, UniProt P35462)
T2 sequence (P35462 whole entry): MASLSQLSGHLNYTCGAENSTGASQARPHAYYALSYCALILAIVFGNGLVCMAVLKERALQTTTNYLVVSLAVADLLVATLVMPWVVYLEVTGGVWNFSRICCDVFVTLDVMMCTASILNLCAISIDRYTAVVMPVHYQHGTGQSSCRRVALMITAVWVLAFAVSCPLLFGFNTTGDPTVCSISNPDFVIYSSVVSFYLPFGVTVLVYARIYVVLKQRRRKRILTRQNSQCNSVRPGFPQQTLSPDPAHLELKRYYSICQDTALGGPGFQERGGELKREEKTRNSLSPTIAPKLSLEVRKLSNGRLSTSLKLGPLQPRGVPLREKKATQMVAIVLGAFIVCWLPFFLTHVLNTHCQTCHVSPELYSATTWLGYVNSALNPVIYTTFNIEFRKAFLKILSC
Assay: Displacement of [3H]-N-methylspiperone from human dopamine D3 receptor expressed in HEK293 cell membranes incubated for 60 mins by microbeta scintillation counting analysis
Set-up: species or system Membrane
Conditions: not given

SMILES	Ki [µM]
Oc1cccc([C@]23CCC[C@H](NCC2)[C@H]3O)c1	> 100
CCc1cc(Cl)c(OC)c(C(=O)NC[C@@H]2CCCN2CCC(C#N)(c2ccccc2)c2ccccc2)c1O	1.55
CN(C)C(=O)C(CCNCCCCN1CCc2ccc(C#N)cc2C1)(c1ccccc1)c1ccccc1	1.06
CCOC(=O)/C=C1\[C@@H]2CCC[C@@]1(c1cccc(O)c1)CCN2C[C@@H]1C[C@H]1CCNC(=O)c1cc2ccccc2[nH]1 (relative stereo)	2.3
CCOC(=O)/C=C1\[C@@H]2CCC[C@@]1(c1cccc(O)c1)CCN2CC1CC1CCNC(=O)c1cc2ccccc2[nH]1 (some centres not stated)	4.35
N#CC(CCN1CCN(c2cccc(Cl)c2Cl)CC1)(c1ccccc1)c1ccccc1	2.24
N#CC(CCNCCc1ccccc1)(c1ccccc1)c1ccccc1	8.96
CN(C)C(=O)C(CCNCCC(O)CN1CCN(c2cccc(Cl)c2Cl)CC1)(c1ccccc1)c1ccccc1 (configuration not stated)	0.572
CN(C)CCC(C(=O)N(C)C)(c1ccccc1)c1ccccc1	36.9
CN1CCC(c2ccccc2)(c2ccccc2)C1	> 100
CCOC(=O)/C=C1\[C@@H]2CCC[C@@]1(c1cccc(O)c1)CCN2CCCCNC(=O)c1cc2ccccc2[nH]1	13.7
CCC(=O)C(CCN(C)C)(c1ccccc1)c1ccccc1 [NORMETHADONE]	4.27
Oc1cccc([C@@]23CCC[C@@H]([C@H]2O)N(C/C=C/c2ccccc2)CC3)c1	15.7
CN(C)C(=O)C(CCN1CCc2ccc(C#N)cc2C1)(c1ccccc1)c1ccccc1	1.63
CCC(=O)C(CC(C)N(C)C)(c1ccccc1)c1ccccc1 (configuration not stated) [METHADONE]	2.11
CCc1cccc(N2CCN(CCCCNCCC(C(=O)N(C)C)(c3ccccc3)c3ccccc3)CC2)c1Cl	0.0178
CN(C)CCC(C(=O)NCCCCN1CCN(c2cccc(Cl)c2Cl)CC1)(c1ccccc1)c1ccccc1	0.0118
Oc1cccc([C@]23CCC[C@H](NCC2)[C@@H]3O)c1	> 100

Molecular target: T3, D(4) dopamine receptor (Homo sapiens, UniProt P21917)
T3 sequence (P21917 whole entry): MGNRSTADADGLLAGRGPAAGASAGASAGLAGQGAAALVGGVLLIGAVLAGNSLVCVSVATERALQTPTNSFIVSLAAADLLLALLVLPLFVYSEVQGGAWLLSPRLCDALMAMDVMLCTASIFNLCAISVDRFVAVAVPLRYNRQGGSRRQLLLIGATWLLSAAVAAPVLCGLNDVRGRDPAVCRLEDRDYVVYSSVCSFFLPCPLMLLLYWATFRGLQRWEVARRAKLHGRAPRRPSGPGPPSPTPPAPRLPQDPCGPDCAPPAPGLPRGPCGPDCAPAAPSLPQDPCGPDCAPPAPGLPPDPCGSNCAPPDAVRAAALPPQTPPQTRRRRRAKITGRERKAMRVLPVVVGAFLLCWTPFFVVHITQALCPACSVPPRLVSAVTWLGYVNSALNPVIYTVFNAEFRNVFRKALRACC
Assay: Displacement of [3H]-N-methylspiperone from human dopamine D4 receptor expressed in HEK293 cell membranes incubated for 60 mins by microbeta scintillation counting analysis
Set-up: species or system Membrane
Conditions: not given

SMILES	Ki [µM]
O=C(NCCCCN1CC[C@]2(c3cccc(O)c3)CCC[C@H]1[C@H]2O)c1cc2ccccc2[nH]1	3.81
Oc1cccc([C@]23CCC[C@H](NCC2)[C@H]3O)c1	> 100
CCc1cc(Cl)c(OC)c(C(=O)NC[C@@H]2CCCN2CCC(C#N)(c2ccccc2)c2ccccc2)c1O	> 100
CN(C)C(=O)C(CCNCCCCN1CCc2ccc(C#N)cc2C1)(c1ccccc1)c1ccccc1	58.9
CCOC(=O)/C=C1\[C@@H]2CCC[C@@]1(c1cccc(O)c1)CCN2C[C@@H]1C[C@H]1CCNC(=O)c1cc2ccccc2[nH]1 (relative stereo)	17.6
CCOC(=O)/C=C1\[C@@H]2CCC[C@@]1(c1cccc(O)c1)CCN2CC1CC1CCNC(=O)c1cc2ccccc2[nH]1 (some centres not stated)	23.4
N#CC(CCN1CCN(c2cccc(Cl)c2Cl)CC1)(c1ccccc1)c1ccccc1	8.49
N#CC(CCNCCc1ccccc1)(c1ccccc1)c1ccccc1	13.9
CN(C)C(=O)C(CCNCCC(O)CN1CCN(c2cccc(Cl)c2Cl)CC1)(c1ccccc1)c1ccccc1 (configuration not stated)	2.78
CN(C)CCC(C(=O)N(C)C)(c1ccccc1)c1ccccc1	20.2
N#CC(CCNCCCCN1CCN(c2cccc(Cl)c2Cl)CC1)(c1ccccc1)c1ccccc1	0.0259
CN1CCC(c2ccccc2)(c2ccccc2)C1	35.4
CCOC(=O)/C=C1\[C@@H]2CCC[C@@]1(c1cccc(O)c1)CCN2CCc1ccccc1	5.47
CCOC(=O)/C=C1\[C@@H]2CCC[C@@]1(c1cccc(O)c1)CCN2CCCCNC(=O)c1cc2ccccc2[nH]1	13.8
CCC(=O)C(CCN(C)C)(c1ccccc1)c1ccccc1 [NORMETHADONE]	> 100
Oc1cccc([C@@]23CCC[C@@H]([C@H]2O)N(C/C=C/c2ccccc2)CC3)c1	36.9
CCc1cccc(N2CCN(CCC(c3cccc(O)c3)c3cccc(OC)c3)CC2)c1Cl (configuration not stated)	0.0385
CN(C)C(=O)C(CCN1CCc2ccc(C#N)cc2C1)(c1ccccc1)c1ccccc1	18
CCC(=O)C(CC(C)N(C)C)(c1ccccc1)c1ccccc1 (configuration not stated) [METHADONE]	26.2
CCc1cccc(N2CCN(CCCCNCCC(C(=O)N(C)C)(c3ccccc3)c3ccccc3)CC2)c1Cl	0.503
CN(C)CCC(C(=O)NCCCCN1CCN(c2cccc(Cl)c2Cl)CC1)(c1ccccc1)c1ccccc1	0.466
Oc1cccc([C@]23CCC[C@H](NCC2)[C@@H]3O)c1	> 100

Molecular target: T1, D(2) dopamine receptor
Assay: Displacement of [3H]-(R)-(+)7-OH-DPAT from human dopamine D2 receptor expressed in HEK293 cell membranes incubated for 90 mins by microbeta scintillation counting analysis
Set-up: species or system Membrane
Conditions: not given

SMILES	Ki [µM]
Oc1cccc([C@]23CCC[C@H](NCC2)[C@H]3O)c1	> 100
CN(C)C(=O)C(CCNCCC(O)CN1CCN(c2cccc(Cl)c2Cl)CC1)(c1ccccc1)c1ccccc1 (configuration not stated)	0.167
N#CC(CCNCCCCN1CCN(c2cccc(Cl)c2Cl)CC1)(c1ccccc1)c1ccccc1	0.0363
CCOC(=O)/C=C1\[C@@H]2CCC[C@@]1(c1cccc(O)c1)CCN2CCc1ccccc1	0.186
Oc1cccc([C@@]23CCC[C@@H]([C@H]2O)N(C/C=C/c2ccccc2)CC3)c1	2.79
CCc1cccc(N2CCN(CCCCNCCC(C(=O)N(C)C)(c3ccccc3)c3ccccc3)CC2)c1Cl	0.0442
Oc1cccc([C@]23CCC[C@H](NCC2)[C@@H]3O)c1	> 100

Molecular target: T2, D(3) dopamine receptor
Assay: Displacement of [3H]-(R)-(+)7-OH-DPAT from human dopamine D3 receptor expressed in HEK293 cell membranes incubated for 90 mins by microbeta scintillation counting analysis
Set-up: species or system Membrane
Conditions: not given

SMILES	Ki [µM]
Oc1cccc([C@]23CCC[C@H](NCC2)[C@H]3O)c1	> 100
CN(C)C(=O)C(CCNCCC(O)CN1CCN(c2cccc(Cl)c2Cl)CC1)(c1ccccc1)c1ccccc1 (configuration not stated)	0.209
Oc1cccc([C@@]23CCC[C@@H]([C@H]2O)N(C/C=C/c2ccccc2)CC3)c1	20
CCc1cccc(N2CCN(CCCCNCCC(C(=O)N(C)C)(c3ccccc3)c3ccccc3)CC2)c1Cl	0.0383
Oc1cccc([C@]23CCC[C@H](NCC2)[C@@H]3O)c1	> 100

Molecular target: T2, D(3) dopamine receptor
Assay: Antagonist activity at human […] expressed in HEK293T cells assessed as GalphaoA activation preincubated with compound in D-PBS for 3 hrs followed by coelenterazine addition for 5 mins once again compound addition for 10 mins by BRET assay
Format: functional, cell-based
Conditions: not given

SMILES	pIC50
CCOC(=O)/C=C1\[C@@H]2CCC[C@@]1(c1cccc(O)c1)CCN2CCCCNC(=O)c1cc2ccccc2[nH]1	> 5

Molecular target: Mu-type opioid receptor (Homo sapiens) (UniProt P35372)
Sequence (P35372 whole entry): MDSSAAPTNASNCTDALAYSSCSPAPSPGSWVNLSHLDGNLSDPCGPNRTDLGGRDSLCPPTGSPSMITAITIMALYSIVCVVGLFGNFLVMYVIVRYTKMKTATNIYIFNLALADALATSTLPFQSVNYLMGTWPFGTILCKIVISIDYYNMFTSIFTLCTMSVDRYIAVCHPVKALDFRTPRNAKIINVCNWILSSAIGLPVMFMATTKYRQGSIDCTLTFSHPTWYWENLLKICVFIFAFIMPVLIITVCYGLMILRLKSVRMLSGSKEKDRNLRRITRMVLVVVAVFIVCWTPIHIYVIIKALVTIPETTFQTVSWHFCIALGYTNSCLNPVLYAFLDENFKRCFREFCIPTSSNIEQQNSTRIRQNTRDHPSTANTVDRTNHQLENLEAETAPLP
Conditions: HEK293T, time 10.0 min

SMILES	pEC50
CCOC(=O)/C=C1\[C@@H]2CCC[C@@]1(c1cccc(O)c1)CCN2C[C@@H]1C[C@H]1CCNC(=O)c1cc2ccccc2[nH]1 (relative stereo)	inactive
CCOC(=O)/C=C1\[C@@H]2CCC[C@@]1(c1cccc(O)c1)CCN2CCCCNC(=O)c1cc2ccccc2[nH]1	inactive

Molecular target: Mu-type opioid receptor (Homo sapiens) (UniProt P35372)
Conditions: HEK293T, time 10.0 min
Remark: another data set of the same source

SMILES	pEC50
CCOC(=O)/C=C1\[C@@H]2CCC[C@@]1(c1cccc(O)c1)CCN2C[C@@H]1C[C@H]1CCNC(=O)c1cc2ccccc2[nH]1 (relative stereo)	inactive
CCOC(=O)/C=C1\[C@@H]2CCC[C@@]1(c1cccc(O)c1)CCN2CCCCNC(=O)c1cc2ccccc2[nH]1	inactive

Molecular target: Mu-type opioid receptor (Homo sapiens) (UniProt P35372)
Conditions: HEK293T, time 10.0 min
Remark: another data set of the same source

SMILES	pEC50
CCOC(=O)/C=C1\[C@@H]2CCC[C@@]1(c1cccc(O)c1)CCN2C[C@@H]1C[C@H]1CCNC(=O)c1cc2ccccc2[nH]1 (relative stereo)	inactive
CCOC(=O)/C=C1\[C@@H]2CCC[C@@]1(c1cccc(O)c1)CCN2CCCCNC(=O)c1cc2ccccc2[nH]1	inactive

Molecular target: T2, D(3) dopamine receptor
Conditions: HEK293T, time 10.0 min

SMILES	pEC50
CCOC(=O)/C=C1\[C@@H]2CCC[C@@]1(c1cccc(O)c1)CCN2CCCCNC(=O)c1cc2ccccc2[nH]1	inactive
